# From patent US20180284095A1, “BIOMARKERS ASSOCIATED WITH LSD1 INHIBITORS AND USES THEREOF” (Oryzon Genomics, S.A., priority 2015, published 2018)
# Legend:
# Format in all cases: in vivo, mouse
# Conditions in all cases: brain day 5, male CD1 mice pool
# [1] = system: S100A8; experiment: Microarray gene expression, brain of Hsd:ICR (CD1) mice, MTD study (Example 6)
# Procedure: (§1) Total RNA was extracted from samples using the RNeasy extraction kit (Qiagen). The quality and concentration of the RNA was analyzed using the Agilent 2100 bioanalyzer and NanoDrop™ ND-1000 (Thermo Scientific). Samples with RNA integrity number (RIN)<6.0 were discarded. Total RNA (0.5 μg) amplification and labelling with Cy3 or Cy5 was carried out using the Eberwein mRNA amplification procedure (Van Gelder et al, Proc Natl Acad Sci USA 1990, 87:1663-1667) employing the MessageAmp™ aRNA amplification kit from Ambion (Applied Biosystems) following the manufacturer's instructions with minor modifications. As hybridization controls, plant mRNAs were transcribed from a plasmid containing the Zea mays Xet (xyloglucan endo-transglycosylase) cDNA and from a plasmid containing the Zea mays Zmmyb42 cDNA, independently prepared Cy3 and Cy5 labelled aRNA from these two RNAs using the Eberwein mRNA amplification procedure (as disclosed in Cerdà et al, Gen Comp Endocrinol 2008, 156:470-481).
# (§2) The Cy3- and Cy5-labelled cRNAs and spikes were combined and hybridized to the microarray described in Example 2.6 for 17 h at 60° C. using Agilent's gaskets G2534-60002, G2534A hybridization chambers and DNA Hybridization Oven G2545A, according to the manufacturer's instructions. More specifically, equal amounts of Cy3 and Cy5 labeled Xet aRNA as well as equal amounts of Cy3 and Cy5 labeled Zmmyb42 aRNA were spiked into each mixture hybridized to the array. Arrays were washed and raw data were obtained using Agilent's DNA Microarray Scanner G2505B and Feature Extraction software (v10.1). The raw fluorescence intensity data were processed using applicant's proprietary software, and consists in the following operations:
# (§3) Data normalization was carried out by an improved version of the nonlinear Q-splines normalization method (Workman et al., Genome Biol 2002, 3(9):research0048.1-0048.16). Normalization results were presented graphically as MA plots, as first described by Dudoit et al (Dudoit et al, Statistica Sinica, 2002, 12:111-139). Each point corresponds to a probe of the DNA array. M values (vertical axis) are the log-differential expression ratios. A values (horizontal axis) are the log-intensities of the spots. M and A are calculated from the Cy5 and Cy3 intensity values as of each spot. The DNA Array data is normalized using an improved version of non-linear Q-Splines normalization described by Workman et al., Genome Biol 2002, 3(9):research0048.1-0048.16. This process is useful to correct the deviation of the M values from the statistical assumption that most of the spots have M=0 in MA plots. […]. The data used to calculate the normalization fitting curve is the totality of the raw measurement dataset, excluding the signals for the probes for the spiked-in plant RNA controls and negative controls. In order to be able to normalize properly the data among all the experiments, the probe-set must include an important group of genes that should have no change (M=0) in the experiment. The normalization function is then applied to all the data, including controls.
# (§4) Normalized and log-transformed data were used to calculate log 2 (sample/control) and Fold Change (FC) values. No background subtraction was applied to the signal intensity values during data processing, permitting robust selection of differentially expressed genes with low expression levels at the cost of potential sub-estimation of change when intensity levels are close to the array background level.
# (§5) Male Hsd:ICR (CD1®) mice were maintained in air- and temperature-controlled cages with regular supply of water and food. A maximum of 3 mice were raised per cage. Three mice were assigned to each group. Before the first administration, each mouse was labeled and weighed. Test compounds were administered orally using 1 ml syringes using animal feeding needles proper for mice at 10 ml/kg as follows. […]
# [2] = system: S100A9; experiment: as above
# Procedure: as §1, §2, §3, §4, §5
# [3] = system: TUBB2C; experiment: Microarray gene expression, brain of Hsd:ICR (CD1) mice, MTD study (Example 6), housekeeping gene
# Procedure: as §1, §2, §3, §4, §5
# [4] = system: TUBB3; experiment: as above
# Procedure: as §1, §2, §3, §4, §5
# [5] = 3 mg/kg oral x5 days vs vehicle
# [6] = 10 mg/kg oral x5 days vs vehicle
# [7] = 30 mg/kg oral x5 days vs vehicle
# [8] = 100 mg/kg oral x5 days vs vehicle
substance,measurement,setting,value
"(+) 5-((((trans)-2-(4-(benzyloxy)phenyl)cyclopropyl)amino)methyl)-1,3,4-oxadiazol-2-amine [Compound 2]",Hybridization signal sample_Cy5 S100A8,[1]; 3 mg/kg oral x5 days,126.363
same,log2 (sample/control) S100A8,[1]; [5],−0.1015
same,Hybridization signal sample_Cy5 S100A8,[1]; 10 mg/kg oral x5 days,69.9912
same,log2 (sample/control) S100A8,[1]; [6],−1.156
same,Hybridization signal sample_Cy5 S100A8,[1]; 30 mg/kg oral x5 days,80.188
same,log2 (sample/control) S100A8,[1]; [7],−1.029
same,Hybridization signal sample_Cy5 S100A8,[1]; 100 mg/kg oral x5 days,39.3591
same,log2 (sample/control) S100A8,[1]; [8],−1.921
same,Hybridization signal sample_Cy5 S100A9,[2]; 3 mg/kg oral x5 days,291.855
same,log2 (sample/control) S100A9,[2]; [5],−0.2512
same,Hybridization signal sample_Cy5 S100A9,[2]; 10 mg/kg oral x5 days,117.175
same,log2 (sample/control) S100A9,[2]; [6],−1.515
same,Hybridization signal sample_Cy5 S100A9,[2]; 30 mg/kg oral x5 days,149.542
same,log2 (sample/control) S100A9,[2]; [7],−1.285
same,Hybridization signal sample_Cy5 S100A9,[2]; 100 mg/kg oral x5 days,45.3442
same,log2 (sample/control) S100A9,[2]; [8],−2.876
same,Hybridization signal sample_Cy5 TUBB2C,[3]; 3 mg/kg oral x5 days,5746.61
same,log2 (sample/control) TUBB2C,[3]; [5],0.1908
same,Hybridization signal sample_Cy5 TUBB2C,[3]; 10 mg/kg oral x5 days,5742.06
same,log2 (sample/control) TUBB2C,[3]; [6],0.1179
same,Hybridization signal sample_Cy5 TUBB2C,[3]; 30 mg/kg oral x5 days,6326.04
same,log2 (sample/control) TUBB2C,[3]; [7],0.1798
same,Hybridization signal sample_Cy5 TUBB2C,[3]; 100 mg/kg oral x5 days,3724.28
same,log2 (sample/control) TUBB2C,[3]; [8],−0.3983
same,Hybridization signal sample_Cy5 TUBB3,[4]; 3 mg/kg oral x5 days,3650.69
same,log2 (sample/control) TUBB3,[4]; [5],0.09458
same,Hybridization signal sample_Cy5 TUBB3,[4]; 10 mg/kg oral x5 days,3706.64
same,log2 (sample/control) TUBB3,[4]; [6],−0.1239
same,Hybridization signal sample_Cy5 TUBB3,[4]; 30 mg/kg oral x5 days,4409.6
same,log2 (sample/control) TUBB3,[4]; [7],−0.002033
same,Hybridization signal sample_Cy5 TUBB3,[4]; 100 mg/kg oral x5 days,2253.74
same,log2 (sample/control) TUBB3,[4]; [8],−0.4338
"(−) 5-((((trans)-2-(4-(benzyloxy)phenyl)cyclopropyl)amino)methyl)-1,3,4-oxadiazol-2-amine [Compound 1]",Hybridization signal sample_Cy5 S100A8,[1]; 3 mg/kg oral x5 days,55.2994
same,log2 (sample/control) S100A8,[1]; [5],−1.452
same,Hybridization signal sample_Cy5 S100A8,[1]; 10 mg/kg oral x5 days,39.6385
same,log2 (sample/control) S100A8,[1]; [6],−1.81
same,Hybridization signal sample_Cy5 S100A8,[1]; 30 mg/kg oral x5 days,40.5977
same,log2 (sample/control) S100A8,[1]; [7],−1.859
same,Hybridization signal sample_Cy5 S100A8,[1]; 100 mg/kg oral x5 days,40.4596
same,log2 (sample/control) S100A8,[1]; [8],−1.786
same,Hybridization signal sample_Cy5 S100A9,[2]; 3 mg/kg oral x5 days,97.9225
same,log2 (sample/control) S100A9,[2]; [5],−1.935
same,Hybridization signal sample_Cy5 S100A9,[2]; 10 mg/kg oral x5 days,46.2723
same,log2 (sample/control) S100A9,[2]; [6],−2.962
same,Hybridization signal sample_Cy5 S100A9,[2]; 30 mg/kg oral x5 days,45.4319
same,log2 (sample/control) S100A9,[2]; [7],−2.9408
same,Hybridization signal sample_Cy5 S100A9,[2]; 100 mg/kg oral x5 days,56.7063
same,log2 (sample/control) S100A9,[2]; [8],−2.792
same,Hybridization signal sample_Cy5 TUBB2C,[3]; 3 mg/kg oral x5 days,5008.03
same,log2 (sample/control) TUBB2C,[3]; [5],−0.03216
same,Hybridization signal sample_Cy5 TUBB2C,[3]; 10 mg/kg oral x5 days,3965.09
same,log2 (sample/control) TUBB2C,[3]; [6],−0.309
same,Hybridization signal sample_Cy5 TUBB2C,[3]; 30 mg/kg oral x5 days,5060.07
same,log2 (sample/control) TUBB2C,[3]; [7],0.03544
same,Hybridization signal sample_Cy5 TUBB2C,[3]; 100 mg/kg oral x5 days,5579.26
same,log2 (sample/control) TUBB2C,[3]; [8],0.0424
same,Hybridization signal sample_Cy5 TUBB3,[4]; 3 mg/kg oral x5 days,3553.16
same,log2 (sample/control) TUBB3,[4]; [5],−0.1852
same,Hybridization signal sample_Cy5 TUBB3,[4]; 10 mg/kg oral x5 days,2424.61
same,log2 (sample/control) TUBB3,[4]; [6],−0.5964
same,Hybridization signal sample_Cy5 TUBB3,[4]; 30 mg/kg oral x5 days,2911.46
same,log2 (sample/control) TUBB3,[4]; [7],−0.1102
same,Hybridization signal sample_Cy5 TUBB3,[4]; 100 mg/kg oral x5 days,3667.46
same,log2 (sample/control) TUBB3,[4]; [8],−0.02579
